Source: patent publication US20260234208A1, “METHOD FOR PRODUCING A KERATIN POWDER FROM FEATHERS OF ANIMAL ORIGIN, COLLOIDAL SOLUTION AND KERATIN POWDER FOR TOPICAL APPLICATION CONTAINING KERATIN PARTICLES, AND USE OF THE COLLOIDAL SOLUTION AND THE KERATIN POWDER” (RIGI THERAPEUTICS AG, priority 2023, published 2026)

Experiment: Water release in climate chamber
Assay type: physicochemical
Settings: room temperature, humidity 50%
Protocol: When urea was added, up to a ratio of 5% keratin to 95% urea, the maximum was reached increasingly later, in the maximum case only after 15 days. In this case, the water absorption capacity was 197%. (FIG. 13). The water release was determined at room temperature and a humidity of 50%. […] For the mixtures of keratin and urea in the ratios 25:75 and 10:[…], a water content of 25% was still observed even after 4 days (FIG. 14).

NC(N)=O [urea]
Time to complete water release: 4 days | Water release within the first 24 hours: around 170%
